Experimental data as given in patent publication US11510859B2, “Method for improving aqueous solubility of water-insoluble or slightly water-soluble drugs” (MARINOMED BIOTECH AG, priority 2015, dated 2022).
Each block holds one compound with its values, some of them ahead of it.

Columns and labels:
Assay type in all cases: physicochemical
[1] = Solubility of budesonide in 0.25x McIlvaine buffer with/without propylene glycol, saponin, dexpanthenol (Examples 5-9)
Procedure: Budesonide was analyzed by RP-HPLC (UV absorbance detection at 244 nm) using isocratic elution with 55% acetonitrile 0.01% TFA/45% water 0.01% TFA at 1 ml/min for 7 min on an Agilent Zorbax SB C18 3.5 μm 4.6×150 mm column with 4×4 mm RP8 pre-column. From the budesonide-containing samples 40 μl were injected and analyzed.
Buffer • B . . . 5% propylene glycol • C . . . 10% propylene glycol • D . . . 15% propylene glycol • y-axis . . . concentration of dissolved budesonide
FIGS. 2a and 2b refer to the concentrations of budesonide still dissolved after one month of storage at ambient temperature (T˜20-25° C.) in 0.25× McIlvaine buffer containing 5% (FIG. 2a) and 10% (FIG. 2b) propylene glycol (maximum concentration 550 μg/ml budesonide). […] Further increase of escin concentration remains substantially without additional benefit. […] 0% Dexpanthenol • B . . . 1% Dexpanthenol • C . . . 2% Dexpanthenol • D . . . 5% Dexpanthenol • y-axis . . . μg/ml dissolved budesonide • x-axis . . . w/v % Escin
FIGS. 3a and 3b are based on data sets identical to those of FIG. 2a/2b but after 3 months of storage at ambient temperature (T˜20-25° C.). • FIG. 3a: 5% propylene glycol; FIG. 3b: 10% propylene glycol • A . . . 0% Dexpanthenol • B . . . 1% Dexpanthenol • C . . . 2% Dexpanthenol • D . . . 5% Dexpanthenol • y-axis . . . μg/ml dissolved budesonide • x-axis . . . w/v % Escin
FIG. 4 represents that 0.03% w/v escin and 5% v/v dexpanthenol independently increase the solubility of budesonide in McIlvaine buffer in the absence of propylene glycol. […] Yet, the solubility of budesonide in this buffer system, i.e., in the absence of propylene glycol, remains at or below the corresponding values achieved in the presence of propylene glycol alone, i.e., in the absence of escin and dexpanthenol (see FIGS. 2a, b and 3a, b). The only exception being the value at column D which moderately exceeds the solubility values achieved with propylene glycol alone. • A . . . 0% Escin/0% Dexpanthenol • B . . . 0% Escin/5% Dexpanthenol • C . . . 0.03% Escin/0% Dexpanthenol • D . . . 0.03% Escin/5% Dexpanthenol • y-axis . . . concentration of dissolved budesonide in [μg/ml]
For Quillaja saponins, but not for glycyrrhizin, this applies also at a saponin concentration of 0.1%. […] Escin • B . . . Glycyrrhizin • C . . . Quillaja extract • * . . . w/v % Saponin component (escin, glycyrrhizin or Quillaja ext.) • # . . . v/v % Dexpanthenol • y-axis . . . concentration of dissolved budesonide

[2] = Budesonide solubility and storage stability in the presence of carrageenan (Examples 1, 2, 12, 13); details: 1.2 g/L iota-carrageenan, optionally 0.4 g/L kappa-carrageenan; 5% or 10% propylene glycol
Procedure: Samples of series A (0% dexpanthenol): 2.5 ml solution containing the respective escin concentration (McIlvaine 0.01%, 0.02%, 0.03% or McIlvaine buffer) were mixed with 5 ml carrageenan stock solution and 0.5 ml budesonide pre-solution and filled up to 10 ml with distilled water.
Samples of series B (2% dexpanthenol): 2.5 ml solution containing the respective escin concentration (McIlvaine 0.01%, 0.02%, 0.03% or McIlvaine buffer) were mixed with 0.2 ml dexpanthenol, 5 ml carrageenan stock solution and 0.5 ml budesonide pre-solution and filled up to 10 ml with distilled water. […]
After 3 months storage at room temperature, samples were taken and centrifuged for 11 min at 15700 rcf. The clear supernatant was filled into glass vials and the concentration of dissolved budesonide (maximal 500 μg/ml) was measured in duplicates by HPLC.
Budesonide was analyzed by RP-HPLC (UV absorbance detection at 244 nm) using isocratic elution with 55% acetonitrile 0.01% TFA/45% water 0.01% TFA at 1 ml/min for 7 min on an Agilent Zorbax SB C18 3.5 μm 4.6×150 mm column with 4×4 mm RP8 pre-column. From the budesonide-containing samples 40 μl were injected and analyzed. […]

[3] = Saturation concentrations of drugs in buffered solvent, HPLC of supernatant (Example 4); details: for Saturation concentration in 10% propylene glycol or DMSO without escin or dexpanthenol / Saturation concentration in 10% propylene glycol or DMSO, 0.1% escin and 5% dexpanthenol: McIlvaine buffer pH 6.0, compound pre-dissolved in propylene glycol
Procedure: 250 μl “McIlvaine 0.1%” were mixed with 50 μl dexpanthenol stock solution, brought to 900 μl with distilled water, and combined and vigorously mixed with 100 μl experimental compound pre-dissolved resp. pre-suspended in propylene glycol. Alternative solutions with compound pre-dilutions/pre-suspensions in DMSO were prepared. Samples were centrifuged for 10 min at 15800 rcf. Aliquots of the clear supernatants were transferred into autosampler glass vials and the content of the dissolved experimental compounds was analyzed by HPLC using isocratic elution with 70% or 80% acetonitrile 0.01% TFA/[…] or 30% water 0.01% TFA at 1 ml/min and 50° C. for 10 min on an Agilent Zorbax Eclipse Plus C18 column (3.5 μm, 4.6×150 mm) and UV absorbance detection at the wavelengths appropriate for the respective experimental compound.

[4] = Micelle formation of saponins, Hoechst 33342 fluorescence
Procedure: In water and aqueous buffers containing a detergent below the critical micelle concentration fluorescence of the Hoechst 33342 dye is almost undetectable. Upon increase of the detergent concentration until the critical micelle concentration is reached micelles begin to form and the dye starts getting incorporated into the micelles, whereupon an increase of a fluorescence signal can be detected. For the experiments of this example, the dye was mixed at a final concentration of 7 μM with aqueous buffer comprising different concentrations of saponin in black, flat and clear bottom 96-well plates and emission spectra were measured using a microplate reader (filters used: ex=355 nm and em=460 nm). Finally, data were background corrected.

Structure (SMILES): CCCC1O[C@@H]2C[C@H]3[C@@H]4CCC5=CC(=O)C=C[C@]5(C)[C@H]4[C@@H](O)C[C@]3(C)[C@]2(C(=O)CO)O1 (stereo partly shown) [Budesonide]
effect of escin on solubility of the steroid ([1]; 0.01-0.02% w/v escin, 5% or 10% propylene glycol, one month storage at ambient temperature): dramatically increases the solubility | combined effect of escin and dexpanthenol on budesonide solubility ([1]; 0.03% escin and 5% dexpanthenol, McIlvaine buffer, no propylene glycol): synergy seems to occur | effect of dexpanthenol on stability of the experimental solutions ([1]; 3 months storage at ambient temperature, particularly at 5% propylene glycol and very low escin): seems to improve the stability | effect of glycyrrhizin and Quillaja saponaria extract saponins on steroid solubility ([1]; in the absence of dexpanthenol): without substantial effect | effect of carrageenans on solubility of the steroid [2]: do not substantially interfere with the solubility

Structure (SMILES): COc1cc(/C=C/C(=O)CC(=O)/C=C/c2ccc(O)c(OC)c2)ccc1O [Curcumin]
Saturation concentration in 10% propylene glycol or DMSO, escin and 5% dexpanthenol ([3]; 0.03% escin): 126 µg/mL | Saturation concentration in 10% propylene glycol or DMSO, saponin and 5% dexpanthenol ([3]; 2% glycyrrhizin instead of escin): 285 µg/mL | Saturation concentration in 10% propylene glycol or DMSO without escin or dexpanthenol [3]: <0.2 µg/mL

Structure (SMILES): CC(=O)O[C@H]1C(=O)[C@@]2(C)[C@H]([C@H](OC(=O)c3ccccc3)[C@]3(O)C[C@H](OC(=O)[C@H](O)[C@@H](NC(=O)c4ccccc4)c4ccccc4)C(C)=C1C3(C)C)[C@]1(OC(C)=O)CO[C@@H]1C[C@@H]2O [Paclitaxel]
Saturation concentration in 10% propylene glycol or DMSO without escin or dexpanthenol [3]: 2.71 µg/mL | Saturation concentration in 10% propylene glycol or DMSO, 0.1% escin and 5% dexpanthenol [3]: 32.7 µg/mL

Structure (SMILES): CC[C@@H]1/C=C(\C)C[C@H](C)C[C@H](OC)[C@H]2O[C@@](O)(C(=O)C(=O)N3CCCC[C@H]3C(=O)O[C@H](/C(C)=C/[C@@H]3CC[C@H](Cl)[C@H](OC)C3)[C@H](C)[C@@H](O)CC1=O)[C@H](C)C[C@@H]2OC [Pimecrolimus]
Saturation concentration in 10% propylene glycol or DMSO, saponin and 5% dexpanthenol ([3]; 1% glycyrrhizin instead of escin): 34.5 µg/mL | Saturation concentration in 10% propylene glycol or DMSO without escin or dexpanthenol [3]: <0.1 µg/mL

The remaining lines, values ahead:

Saturation concentration in 10% propylene glycol or DMSO without escin or dexpanthenol [3]: 132 µg/mL | Saturation concentration in 10% propylene glycol or DMSO, 0.1% escin and 5% dexpanthenol [3]: 774 µg/mL
Structure (SMILES): C=CC[C@@H]1/C=C(\C)C[C@H](C)C[C@H](OC)[C@H]2O[C@@](O)(C(=O)C(=O)N3CCCC[C@H]3C(=O)O[C@H](/C(C)=C/[C@@H]3CC[C@@H](O)[C@H](OC)C3)[C@H](C)[C@@H](O)CC1=O)[C@H](C)C[C@@H]2OC.O [Tacrolimus/FK506, Tacrolimus]

concentration sufficient to trigger the formation of micelles (same RFU level) ([4]; Hoechst 33342 dye 7 μM, room temperature): 0.5% | increase of required concentration relative to escin ([4]; same fluorescence level): 25 fold
Structure (SMILES): CC1(C)[C@@H](O[C@H]2O[C@H](C(=O)O)[C@@H](O)[C@H](O)[C@H]2O[C@@H]2O[C@H](C(=O)O)[C@@H](O)[C@H](O)[C@H]2O)CC[C@]2(C)[C@H]3C(=O)C=C4[C@@H]5C[C@@](C)(C(=O)O)CC[C@]5(C)CC[C@@]4(C)[C@]3(C)CC[C@@H]12 [glycyrrhizin]
